# Earlier results as cited in patent US20050249757A1, “Pharmaceutical cream formulations” (Glenmark Pharmaceuticals Limited, priority 2004, published 2005).
# Experiments:
# rabbit skin = details: described as practically nonirritating
# human subjects = details: 50 human subjects, total of 15 applications; manufacturer's brochure
# macrophilin-12 (FKBP-12) = macrophilin-12 (FKBP-12) (Homo sapiens, UniProt P62942)
# human T cells = details: Th1-type and Th2-type cytokines
# Sequence of macrophilin-12 (FKBP-12) (P62942 whole entry): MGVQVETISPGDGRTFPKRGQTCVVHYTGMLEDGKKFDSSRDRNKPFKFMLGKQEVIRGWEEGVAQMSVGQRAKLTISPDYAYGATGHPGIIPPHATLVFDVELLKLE
SMILES,PII (skin irritation) (rabbit skin),Dermal irritation and sensitization in repeated insult patch test (human subjects),Binding affinity to macrophilin-12 (FKBP-12) (macrophilin-12 (FKBP-12)),"Concentration inhibiting Interleukin-2, interferon gamma, Interleukin-4 and Interleukin-10 cytokine synthesis (human T cells)"
"CN1CCCC1=O [Pharmasolve, N-methyl-2-pyrrolidone]",0.5,neither a primary dermal irritant nor a sensitizer,–,–
"CC[C@@H]1/C=C(\C)C[C@H](C)C[C@H](OC)[C@H]2O[C@@](O)(C(=O)C(=O)N3CCCC[C@H]3C(=O)O[C@H](/C(C)=C/[C@@H]3CC[C@H](Cl)[C@H](OC)C3)[C@H](C)[C@@H](O)CC1=O)[C@H](C)C[C@@H]2OC [pimecrolimus, (1R,9S,12S,13R,14S,17R,18E,21 S,23S,24R,25S,27R)-12-[(1E)-2-{(1R,3R,4S)-4-chloro-3-methoxycyclohexyl}-1-methylvinyl]-17-ethyl-1,14-dihydroxy-23,25-dimethoxy-13,19,21,27-tetramethyl-11,28-dioxa-4-aza-tricyclo[22.3.1.04,9]octacos-18-ene-2,3,10,16-tetraone]",–,–,high affinity,nanomolar concentrations
